Consider 1 compound from PMC9535023, “Inhibition of phospholipase D1 induces immunogenic cell death and potentiates cancer immunotherapy in colorectal cancer” (Experimental & Molecular Medicine, 2022).

The target of one series is T1, PLD1 (Mus musculus, UniProt Q9Z280).
T1 construct: endogenous in cells; host or cells: immortalized Pld2-/- mouse embryonic fibroblasts
T1 sequence (Q9Z280 1-1074): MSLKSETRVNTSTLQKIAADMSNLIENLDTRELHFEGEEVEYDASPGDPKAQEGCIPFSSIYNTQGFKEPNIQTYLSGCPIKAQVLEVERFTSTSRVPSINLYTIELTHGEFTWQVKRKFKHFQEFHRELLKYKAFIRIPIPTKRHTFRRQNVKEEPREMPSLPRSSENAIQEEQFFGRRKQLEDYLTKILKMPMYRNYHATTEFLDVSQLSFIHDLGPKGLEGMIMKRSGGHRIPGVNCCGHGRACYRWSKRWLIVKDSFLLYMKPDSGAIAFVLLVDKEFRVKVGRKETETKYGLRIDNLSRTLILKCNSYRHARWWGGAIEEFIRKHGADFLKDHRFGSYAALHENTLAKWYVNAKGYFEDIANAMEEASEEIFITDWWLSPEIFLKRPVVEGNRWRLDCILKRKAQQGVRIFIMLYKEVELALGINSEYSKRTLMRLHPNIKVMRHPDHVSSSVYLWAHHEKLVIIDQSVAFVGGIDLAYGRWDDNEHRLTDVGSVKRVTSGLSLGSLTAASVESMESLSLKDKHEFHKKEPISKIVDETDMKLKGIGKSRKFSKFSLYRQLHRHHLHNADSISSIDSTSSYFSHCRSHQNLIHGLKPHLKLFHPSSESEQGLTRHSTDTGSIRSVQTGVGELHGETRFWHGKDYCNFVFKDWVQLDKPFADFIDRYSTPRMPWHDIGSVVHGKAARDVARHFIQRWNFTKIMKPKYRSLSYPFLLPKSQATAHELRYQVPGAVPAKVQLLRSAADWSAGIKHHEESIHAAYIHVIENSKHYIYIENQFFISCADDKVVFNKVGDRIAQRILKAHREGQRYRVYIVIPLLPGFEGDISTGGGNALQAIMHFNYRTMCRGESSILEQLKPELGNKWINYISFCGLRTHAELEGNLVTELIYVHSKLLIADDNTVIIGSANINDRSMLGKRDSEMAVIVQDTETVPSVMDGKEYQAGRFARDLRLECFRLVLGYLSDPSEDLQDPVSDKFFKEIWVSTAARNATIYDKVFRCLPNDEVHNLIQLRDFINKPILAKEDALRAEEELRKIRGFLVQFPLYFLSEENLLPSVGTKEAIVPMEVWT
In words: PLD1 activity in Pld2−/− MEFs. The class given is cell-based. As for the experimental part: (§1) Cells were labeled with [H^3] myristic acid, and PLD activity was assessed by measuring the formation of [H^3] phosphatidylbutanol, which is the product of PLD-mediated transphosphatidylation, in the presence of 1-butanol, as previously described.
We further investigated the effect of A3373 on the enzymatic inhibition of PLD1 and PLD2 in Pld^+/+, Pld1^−/−, and Pld2^−/− MEFs. […] Kinase profiling was used to evaluate the general selectivity of the lead compounds. […] To further investigate whether inhibition of PLD1 by A3373 occurs by binding to PLD1, we first modified A3373 by adding biotinylation instead of the F present in its structure and measured PLD activity.

The next series relates to HEK293 cells. As to the kind of experiment: TCF transactivation in HEK293 cells. As to conditions: Wnt3a 150 ng/mL. The class given is cell-based.
Another series in a line: In vivo pharmacokinetics. Also noted: species or system mouse; AUCinf: unit not given here. As to conditions: for half-life: read-out: t1/2 (terminal half-life) (converted). The procedure:
Supplementary Table 4. Plasma pharmacokinetics of A3373
The pharmacokinetic parameters were estimated with non-compartmental analysis using
PKSolver, based on the concentration- time profiles of A3373 in the plasma samples following
single IV (5 mg/kg) and PO (10 mg/kg) dose in mice (n=3). Abbreviations: T1 /2, elimination
half life; Tmax, time to peak concentration; AUC, area under the concentration–time curve;
MRT, mean residence ti me; Vz, the volume in the terminal state; CL, clearance; Vss, steady-
state volume of distribution; F, absolute bioavailability. […]
Male ICR mice (8 weeks old, 30~35 g) were accli mated to the testing facility in a temperature
and humidity controlled condition for approximately a week prior to the study. 1 mg/mL of
A3373 solution in dimethylacetamide/tween 80/saline (10/10/80 vol%) was dosed orally (10
mg/kg in a volume of 10 mL/kg) or by tail vein injection (5 mg/kg in a volume of 5 mL/kg) to
the animals. About 40 μL of blood samples were collected in BD Microtainer plasma s eparator
tubes at selected times through the saphenous vein over 24 hour s post-dosing. Blood samples
were centrifuged at 6,000 x g for 5 minutes to separat e plasma and stored in a freezer until
analyzed. Protein precipitation was conduct ed on 15 μL aliquot of plas ma samples with 3
volumes of acetonitrile containing glipizide as analytical internal standard. After centrifugation,
the supernatant was analyzed by Agilent 6460 QQQ LC-MS/MS system in a negative MRM
mode. Briefly, chromatography was performed on a Phenomenex Kinetex C18 column (2.1 ×
50 mm, 2.6 μm) with a linear gradient of the mobil e phases 10 mM aqu eous ammonium acetate
and acetonitrile. […]

Another series concerns PLD. In words: PLD activity assay in HCT 116 cells. In kind it is cell-based. As to conditions: at 10 μM (Fig. 1c). The procedure: as §1
The mark [1] stands for this setting: male, ICR, mouse, plasma, IV 5 mg/kg, mice.
Setting [2] is: male, ICR, mouse, plasma, PO 10 mg/kg, mice.

Like-named read-outs stand apart in the source and are kept apart here.

With `O=C(Nc1cc(C(F)(F)F)cc(C(F)(F)F)c1)c1cc2cc(F)ccc2[nH]1` [Compound A3373], the “PLD1 activity, in words” value at PLD1 (2 μM, Pld−/− MEFs) is recorded as “suppressed”. The 50% inhibitory concentration (IC50) against PLD1 (Pld2−/− MEFs) stood at 325 nM. In the series on HEK293 cells, the “Wnt3a- and β-catenin-induced TCF transactivation” value is “significantly decreased Wnt3a- and β-catenin-induced TCF transactivation”. For the same compound, the “t1/2 (terminal half-life)” value in the series “In vivo pharmacokinetics” (IV 5 mg/kg, mice, 5 mg/kg) was found to be 3.2 h. Also, the AUCinf in the series “In vivo pharmacokinetics” (PO 10 mg/kg, male ICR mice) is on record as 13,647.5 ± 1506.9. Besides, the time to peak (Tmax) in the series “In vivo pharmacokinetics” (PO 10 mg/kg, male ICR mice) stood at 0.5 h; in “In vivo pharmacokinetics” (male, ICR, mouse, plasma, PO 10 mg/kg, mice, read-out: tmax) it was 0.5 h. Besides, the Vd was 2.1 ± 0.1 L/kg in “In vivo pharmacokinetics” (male, ICR, mouse, plasma, iv, 5 mg/kg, IV 5 mg/kg, mice, read-out: Vss (steady state volume)) and 3.7 L/kg in “In vivo pharmacokinetics” (male, ICR, mouse, plasma, iv, 5 mg/kg, IV 5 mg/kg, mice, read-out: Vz). Moreover, the half-life in the series “In vivo pharmacokinetics” (male, ICR, mouse, plasma, iv, 5 mg/kg, IV 5 mg/kg, mice) was around 3.2 h; in “In vivo pharmacokinetics” (male, ICR, mouse, plasma, po, 10 mg/kg, PO 10 mg/kg, mice), 3.8 h. The results for the AUC(0-inf) in “In vivo pharmacokinetics” (setting [1]) and in the series “In vivo pharmacokinetics” (setting [2]) were 6320 ng·h/mL and 13600 ng·h/mL, respectively. Further, the area under the curve AUC(0-t) amounted to 6300 ng·h/mL in “In vivo pharmacokinetics” (setting [1]) and 13500 ng·h/mL in the series “In vivo pharmacokinetics” (setting [2]). Besides, the MRT was 2.6 h in the series “In vivo pharmacokinetics” (setting [1]) and 5.6 h in “In vivo pharmacokinetics” (setting [2]). The clearance in the series “In vivo pharmacokinetics” (male, ICR, mouse, plasma, IV 5 mg/kg, mice, read-out: CL (clearance) (converted)) was 13.3 mL/min/kg. In addition, the bioavailability in the series “In vivo pharmacokinetics” (male, ICR, mouse, plasma, PO 10 mg/kg vs IV 5 mg/kg, mice, read-out: F (oral bioavailability)) was 108%. In “In vivo pharmacokinetics” (mouse, plasma, PO 10 mg/kg, male ICR mice), the Cmax stood at 2630 ± 183 ng/mL. Further, the PLD activity remained in the series with PLD amounted to 20.6%.
